Data as given in publication PMC8851638 (ACS Omega, 2022).

Legend:
Assay in all cases: Agar well-diffusion antimicrobial sensitivity assay
S. aureus (MDR00231) = assay type: cell-based, Staphylococcus aureus; settings: S. aureus; 100 mg/mL in DMSO, 50 μL per well; ± SD
[1] = system: S. epidermidis (MDR00223); assay type: cell-based, Staphylococcus epidermidis; settings: S. epidermidis; 100 mg/mL in DMSO, 50 μL per well; ± SD
B. subtilis (MDR00423) = assay type: cell-based; settings: 100 mg/mL in DMSO, 50 μL per well, ± SD
E. coli (MDR00501) = assay type: cell-based; settings: E. coli; 100 mg/mL in DMSO, 50 μL per well; ± SD
A. baumannii (MDR00521) = assay type: cell-based; settings: 100 mg/mL in DMSO, 50 μL per well, ± SD
K. pneumoniae (MDR00244) = assay type: cell-based; settings: 100 mg/mL in DMSO, 50 μL per well, ± SD
[2] = system: C. albicans100 (MDR00100); assay type: cell-based, Candida albicans; settings: C. albicans100; 100 mg/mL in DMSO, 50 μL per well; ± SD
[3] = system: C. albicans200 (MDR00200); assay type: cell-based, Candida albicans; settings: C. albicans200; 100 mg/mL in DMSO, 50 μL per well; ± SD

Measured: Inhibition Zone (IZ)

N#CC=c1[nH]c(=O)c(=Cc2cn(-c3ccccc3)nc2-c2ccccc2)s1 [Compound 3a, 2-(5-((1,3-Diphenyl-1H-pyrazol-4-yl)methylene)-4-oxothiazolidin-2-ylidene)acetonitrile]
-ve: all assays above

Cc1c(NN=C2SC3=C(C#N)C(c4ccccc4)C(C#N)=C(N)N3C2=O)c(=O)n(-c2ccccc2)n1C (stereo not drawn) [Compound 16a, 5-Amino-2-(2-(1,5-dimethyl-3-oxo-2-phenyl-2,3-dihydro-1H-pyrazol-4-yl)hydrazono)-3-oxo-7-phenyl-2,3-dihydro-7H-thiazolo[3,2-a]pyridine-6,8-dicarbonitrile]
-ve: all assays above

Cc1c(NN=C2SC3=C(C#N)C(c4ccc(Cl)cc4)C(C#N)=C(N)N3C2=O)c(=O)n(-c2ccccc2)n1C (stereo not drawn) [Compound 16b, 5-Amino-7-(4-chlorophenyl)-2-(2-(1,5-dimethyl-3-oxo-2-phenyl-2,3-dihydro-1H-pyrazol-4-yl)hydrazono)-3-oxo-2,3-dihydro-7H-thiazolo[3,2-a]pyridine-6,8-dicarbonitrile]
-ve: all assays above
